Read-outs that look alike come from different tables or passages of the source.
What was measured:
SHP2 [1] = biological target: T1, SHP2 (Homo sapiens, UniProt Q06124); assay: Phosphatase assays (IC50), DiFMUP substrate
T1 sequence (Q06124 1-593): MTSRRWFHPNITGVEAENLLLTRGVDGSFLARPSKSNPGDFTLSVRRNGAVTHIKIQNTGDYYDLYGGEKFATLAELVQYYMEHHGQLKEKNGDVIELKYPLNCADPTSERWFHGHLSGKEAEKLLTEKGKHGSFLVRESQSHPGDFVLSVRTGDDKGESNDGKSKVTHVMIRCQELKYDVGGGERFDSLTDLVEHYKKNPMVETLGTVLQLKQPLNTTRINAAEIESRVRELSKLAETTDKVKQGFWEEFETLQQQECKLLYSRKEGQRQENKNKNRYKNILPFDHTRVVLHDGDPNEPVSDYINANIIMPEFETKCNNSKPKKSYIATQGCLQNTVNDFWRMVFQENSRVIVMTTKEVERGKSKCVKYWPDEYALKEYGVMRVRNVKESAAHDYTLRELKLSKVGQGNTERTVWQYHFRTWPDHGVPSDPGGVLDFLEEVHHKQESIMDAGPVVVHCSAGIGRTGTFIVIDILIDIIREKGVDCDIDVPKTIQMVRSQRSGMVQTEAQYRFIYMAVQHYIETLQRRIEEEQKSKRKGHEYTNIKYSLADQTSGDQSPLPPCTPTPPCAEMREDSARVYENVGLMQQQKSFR

MV-4-11 = assay: Cell proliferation assay (MTS/PMS); format: cell-based; conditions: Homo sapiens, MV4-11
SHP2 [2] = biological target: T1, SHP2; assay: biochemical; conditions: read-out: SHP2 inhibition (%)@0.1 μM
[3] = MV-4-11 cell proliferation, MTS/PMS readout at day 8, compounds added 24 hours after plating, read-out: IC50

Row | Compound | IC50 (SHP2 [1]) [nM] | IC50 (MV-4-11; [3]) [nM] | inhibition at 0.1 µM (SHP2 [2]) [%] | IC50 (MV-4-11) [nM]
1 | CN(C)c1nccc(Sc2cnc(N3CCC4(CC3)Cc3ncccc3[C@H]4N)cn2)c1Cl [Example 85, (S)-1′-(5-((3-chloro-2-(dimethyl-amino)pyridin-4-yl)thio)pyrazin-2-yl)-5,7-dihydrospiro [cyclopenta [b]pyridine-6,4′-piperidin]-5-amine] | 6 |  |  | 
2 | Nc1nccc(Sc2cnc(N3CCC4(CC3)Cc3scnc3[C@H]4N)cn2)c1Cl [Example 152, (S)-1′-(5-((2-amino-3-chloropyridin-4-yl)thio)pyrazin-2-yl)-4,6-dihydrospiro[cyclopenta[d]thiazole-5,4′-piperidin]-4-amine] | 3 |  |  | 
3 | Nc1nc(N2CCC3(CC2)Cc2scnc2[C@H]3N)cnc1Sc1ccncc1F [Example 88, (S)-1′-(6-amino-5-((3-fluoropyridin-4-yl)thio)pyrazin-2-yl)-4,6-dihydrospiro[cyclopenta [d]thiazole-5,4′-piperidin]-4-amine] | 36 |  |  | 
4 | Nc1nc(N2CCC3(CC2)Oc2ccccc2[C@H]3N)cnc1Sc1ccnc(N)c1Cl [Example 45, (R)-1′-(6-amino-5-((2-amino-3-chloropyridin-4-yl)thio)pyrazin-2-yl)-3H-spiro[benzofuran-2,4′-piperidin]-3-amine] |  |  | 68 | 2.5
5 | N[C@@H]1c2cccnc2CC12CCN(c1cnc(Sc3ccnc(Cl)c3Cl)cn1)CC2 [Example 104, (S)-1′-(5-((2,3-dichloropyridin-4-yl)thio)pyrazin-2-yl)-5,7-dihydrospiro [cyclopenta [b]pyridine-6,4′-piperidin]-5-amine] |  | 9 | 87 | 
6 | Nc1nccc(Sc2cnc(N3CCC4(CC3)Cc3ncsc3[C@H]4N)cn2)c1Cl [Example 156, (S)-1′-(5-((2-amino-3-chloropyridin-4-yl)thio)pyrazin-2-yl)-4,6-dihydrospiro[cyclopenta[d]thiazole-5,4′-piperidin]-6-amine] |  | 46.1 | 80 | 

Second part, led by results:

Row | IC50 (SHP2 [1]) [nM] | IC50 (MV-4-11; [3]) [nM] | inhibition at 0.1 µM (SHP2 [2]) [%] | Compound | IC50 (MV-4-11) [nM]
7 | 9 |  |  | Nc1nc(N2CCC3(CC2)Cc2ncccc2[C@H]3N)cnc1Sc1ccncc1F [Example 87, (S)-1′-(6-amino-5-((3-fluoropyridin-4-yl)thio)pyrazin-2-yl)-5,7-dihydrospiro[cyclopenta [b]pyridine-6,4′-piperidin]-5-amine] | 
8 | 3 |  |  | Nc1nc(N2CCC3(CC2)Cc2ncsc2[C@H]3N)cnc1Sc1ccnc(N)c1Cl [Example 155, (S)-1′-(6-amino-5-((2-amino-3-chloropyridin-4-yl)thio)pyrazin-2-yl)-4,6-dihydrospiro[cyclopenta[d]thiazole-5,4′-piperidin]-6-amine] | 
9 | 3 |  |  | Nc1nc(N2CCC3(CC2)Cc2ncccc2[C@H]3N)cnc1Sc1cccc(Cl)c1Cl [Example 84, (S)-1′-(6-amino-5-((2,3-dichloro-phenyl)thio)pyrazin-2-yl)-5,7-dihydrospiro[cyclopenta [b]pyridine-6, 4′-piperidin]-5-amine] | 
10 | 56 |  |  | Nc1nc(N2CCC3(CC2)Cc2ncccc2C3N)cnc1Sc1ccnc(N)c1Cl (centres unmarked) [Example 121, 1′-(6-amino-5-((2-amino-3-chloropyridin-4-yl)thio)pyrazin-2-yl)-5,7-dihydrospiro [cyclopenta[b]pyridine-6,4′-piperidin]-5-amine] | 
11 |  | 6 | 82 | COc1cccc2c1CC1(CCN(c3cnc(Sc4ccnc(N)c4Cl)c(N)n3)CC1)[C@@H]2N [Example 14, (S)-1′-(6-amino-5-((2-amino-3-chloropyridin-4-yl)thio)pyrazin-2-yl)-4-methoxy-1,3-dihydrospiro[2,4′-piperidin]-1-amine] | 
12 |  | 8.1 | 66 | Nc1nc(N2CCC3(CC2)Cc2nc4ccccc4cc2[C@H]3N)cnc1Sc1ccnc(N)c1Cl [Example 64, (S)-1′-(6-amino-5-((2-amino-3-chloropyridin-4-yl)thio)pyrazin-2-yl)-1,3-dihydrospiro[cyclopenta [b]quinoline-2, 4′-piperidin]-1-amine] | 
